Numbers after ± are expanded uncertainties.
Test: xn = mol fraction of the nth substance listed
Details: 308.15 K, 101 kPa, Liquid; for excess molar volume: Direct dilatometry; for speed of sound: Sing-around technique in a fixed-path interferometer

## OCCCO [propan-1,3-diol] + O=C1CCCN1
x1 = 0.0149
  excess molar volume: 7e-09 ± 5e-09 m3/mol
x1 = 0.0255
  excess molar volume: 1e-08 ± 5e-09 m3/mol
x1 = 0.0582
  excess molar volume: 1.6e-08 ± 5e-09 m3/mol
x1 = 0.0669
  excess molar volume: 1.8e-08 ± 5e-09 m3/mol
x1 = 0.0811
  excess molar volume: 1.9e-08 ± 5e-09 m3/mol
x1 = 0.0944
  excess molar volume: 1.9e-08 ± 5e-09 m3/mol
x1 = 0.1161
  excess molar volume: 2.2e-08 ± 5e-09 m3/mol
x1 = 0.133
  excess molar volume: 2.3e-08 ± 5e-09 m3/mol
x1 = 0.1507
  excess molar volume: 2.5e-08 ± 5e-09 m3/mol
x1 = 0.1752
  excess molar volume: 2.6e-08 ± 5e-09 m3/mol
x1 = 0.2346
  excess molar volume: 2.7e-08 ± 5e-09 m3/mol
x1 = 0.2749
  excess molar volume: 2.8e-08 ± 5e-09 m3/mol
x1 = 0.3232
  excess molar volume: 2.9e-08 ± 5e-09 m3/mol
x1 = 0.399
  excess molar volume: 2.8e-08 ± 5e-09 m3/mol
x1 = 0.4472
  excess molar volume: 2.5e-08 ± 5e-09 m3/mol
x1 = 0.4784
  excess molar volume: 2.5e-08 ± 5e-09 m3/mol
x1 = 0.4826
  excess molar volume: 2.4e-08 ± 5e-09 m3/mol
x1 = 0.4941
  excess molar volume: 2.4e-08 ± 5e-09 m3/mol
x1 = 0.518
  excess molar volume: 2.2e-08 ± 5e-09 m3/mol
x1 = 0.537
  excess molar volume: 2.1e-08 ± 5e-09 m3/mol
x1 = 0.5552
  excess molar volume: 2.1e-08 ± 5e-09 m3/mol
x1 = 0.5751
  excess molar volume: 1.8e-08 ± 5e-09 m3/mol
x1 = 0.6011
  excess molar volume: 1.5e-08 ± 5e-09 m3/mol
x1 = 0.6281
  excess molar volume: 1.3e-08 ± 5e-09 m3/mol
x1 = 0.6505
  excess molar volume: 1e-08 ± 5e-09 m3/mol
x1 = 0.6707
  excess molar volume: 9e-09 ± 5e-09 m3/mol
x1 = 0.6824
  excess molar volume: 8e-09 ± 5e-09 m3/mol
x1 = 0.7028
  excess molar volume: 4e-09 ± 5e-09 m3/mol
x1 = 0.7232
  excess molar volume: 1e-09 ± 5e-09 m3/mol
x1 = 0.746
  excess molar volume: -2e-09 ± 5e-09 m3/mol
x1 = 0.7719
  excess molar volume: -4e-09 ± 5e-09 m3/mol
x1 = 0.791
  excess molar volume: -6e-09 ± 5e-09 m3/mol
x1 = 0.8126
  excess molar volume: -8e-09 ± 5e-09 m3/mol
x1 = 0.8237
  excess molar volume: -1e-08 ± 5e-09 m3/mol
x1 = 0.8409
  excess molar volume: -1.3e-08 ± 5e-09 m3/mol
x1 = 0.853
  excess molar volume: -1.6e-08 ± 5e-09 m3/mol
x1 = 0.8712
  excess molar volume: -1.9e-08 ± 5e-09 m3/mol
x1 = 0.8823
  excess molar volume: -2.1e-08 ± 5e-09 m3/mol
x1 = 0.8935
  excess molar volume: -2.2e-08 ± 5e-09 m3/mol
x1 = 0.9116
  excess molar volume: -2.4e-08 ± 5e-09 m3/mol
x1 = 0.9269
  excess molar volume: -2.4e-08 ± 5e-09 m3/mol
x1 = 0.9355
  excess molar volume: -2.3e-08 ± 5e-09 m3/mol
x1 = 0.9476
  excess molar volume: -2.2e-08 ± 5e-09 m3/mol
x1 = 0.9599
  excess molar volume: -2e-08 ± 5e-09 m3/mol
x1 = 0.9803
  excess molar volume: -1.4e-08 ± 5e-09 m3/mol
x1 = 0.9887
  excess molar volume: -1.2e-08 ± 5e-09 m3/mol
x1 = 0.9978
  excess molar volume: -8e-09 ± 5e-09 m3/mol
x1 = 0.0365
  speed of sound: 1600.9 ± 1.4 m/s
  viscosity: 9.37 ± 0.18 mPa·s
x1 = 0.059
  speed of sound: 1601.4 ± 1.4 m/s
  viscosity: 9.712 ± 0.19 mPa·s
x1 = 0.0794
  speed of sound: 1602.1 ± 1.4 m/s
  viscosity: 9.969 ± 0.19 mPa·s
x1 = 0.1005
  speed of sound: 1602.7 ± 1.4 m/s
  viscosity: 10.29 ± 0.2 mPa·s
x1 = 0.1451
  speed of sound: 1603.5 ± 1.4 m/s
x1 = 0.1944
  speed of sound: 1604.5 ± 1.4 m/s
  viscosity: 11.58 ± 0.22 mPa·s
x1 = 0.3004
  speed of sound: 1606.2 ± 1.4 m/s
x1 = 0.3994
  speed of sound: 1607.4 ± 1.4 m/s
  viscosity: 15.04 ± 0.28 mPa·s
x1 = 0.4902
  speed of sound: 1608.2 ± 1.4 m/s
  viscosity: 16.76 ± 0.3 mPa·s
x1 = 0.5828
  speed of sound: 1608.7 ± 1.4 m/s
  viscosity: 18.38 ± 0.33 mPa·s
x1 = 0.6833
  speed of sound: 1608.8 ± 1.4 m/s
  viscosity: 20.23 ± 0.36 mPa·s
x1 = 0.7889
  speed of sound: 1608.3 ± 1.4 m/s
  viscosity: 22.45 ± 0.4 mPa·s
x1 = 0.8265
  speed of sound: 1607.7 ± 1.4 m/s
  viscosity: 23.24 ± 0.41 mPa·s
x1 = 0.8909
  speed of sound: 1606.7 ± 1.4 m/s
  viscosity: 24.43 ± 0.43 mPa·s
x1 = 0.9186
  speed of sound: 1606.4 ± 1.4 m/s
  viscosity: 24.98 ± 0.44 mPa·s
x1 = 0.9422
  speed of sound: 1605.8 ± 1.4 m/s
  viscosity: 25.52 ± 0.45 mPa·s
x1 = 0.9712
  speed of sound: 1605 ± 1.4 m/s
  viscosity: 26.02 ± 0.46 mPa·s
x1 = 0.1452
  viscosity: 10.9 ± 0.21 mPa·s
x1 = 0.3005
  viscosity: 13.29 ± 0.25 mPa·s

## O=C1CCCN1 [2-pyrrolidinone] + OCCO
x2 = 0.0118
  excess molar volume: 4e-09 ± 5e-09 m3/mol
x2 = 0.0271
  excess molar volume: 1.1e-08 ± 5e-09 m3/mol
x2 = 0.0551
  excess molar volume: 2.1e-08 ± 5e-09 m3/mol
x2 = 0.0711
  excess molar volume: 2.4e-08 ± 5e-09 m3/mol
x2 = 0.0891
  excess molar volume: 3.3e-08 ± 5e-09 m3/mol
x2 = 0.1123
  excess molar volume: 3.6e-08 ± 5e-09 m3/mol
x2 = 0.1356
  excess molar volume: 4.4e-08 ± 5e-09 m3/mol
x2 = 0.1467
  excess molar volume: 5e-08 ± 5e-09 m3/mol
x2 = 0.1671
  excess molar volume: 5.6e-08 ± 5e-09 m3/mol
x2 = 0.1927
  excess molar volume: 6e-08 ± 5e-09 m3/mol
x2 = 0.2287
  excess molar volume: 6.9e-08 ± 5e-09 m3/mol
x2 = 0.2682
  excess molar volume: 8.3e-08 ± 5e-09 m3/mol
x2 = 0.3038
  excess molar volume: 9.4e-08 ± 5e-09 m3/mol
x2 = 0.3336
  excess molar volume: 1.01e-07 ± 5e-09 m3/mol
x2 = 0.4018
  excess molar volume: 1.12e-07 ± 5e-09 m3/mol
x2 = 0.4305
  excess molar volume: 1.16e-07 ± 5e-09 m3/mol
x2 = 0.4785
  excess molar volume: 1.21e-07 ± 5e-09 m3/mol
x2 = 0.4965
  excess molar volume: 1.22e-07 ± 5e-09 m3/mol
x2 = 0.5172
  excess molar volume: 1.22e-07 ± 5e-09 m3/mol
x2 = 0.543
  excess molar volume: 1.23e-07 ± 5e-09 m3/mol
x2 = 0.5614
  excess molar volume: 1.22e-07 ± 5e-09 m3/mol
x2 = 0.607
  excess molar volume: 1.2e-07 ± 5e-09 m3/mol
x2 = 0.623
  excess molar volume: 1.19e-07 ± 5e-09 m3/mol
x2 = 0.6414
  excess molar volume: 1.17e-07 ± 5e-09 m3/mol
x2 = 0.6694
  excess molar volume: 1.15e-07 ± 5e-09 m3/mol
x2 = 0.6896
  excess molar volume: 1.11e-07 ± 5e-09 m3/mol
x2 = 0.7154
  excess molar volume: 1.08e-07 ± 5e-09 m3/mol
x2 = 0.7437
  excess molar volume: 1.02e-07 ± 5e-09 m3/mol
x2 = 0.7579
  excess molar volume: 1e-07 ± 5e-09 m3/mol
x2 = 0.7775
  excess molar volume: 9.6e-08 ± 5e-09 m3/mol
x2 = 0.8278
  excess molar volume: 8.7e-08 ± 5e-09 m3/mol
x2 = 0.8424
  excess molar volume: 8.4e-08 ± 5e-09 m3/mol
x2 = 0.8713
  excess molar volume: 7.5e-08 ± 5e-09 m3/mol
x2 = 0.8846
  excess molar volume: 7e-08 ± 5e-09 m3/mol
x2 = 0.8963
  excess molar volume: 6.6e-08 ± 5e-09 m3/mol
x2 = 0.9107
  excess molar volume: 5.9e-08 ± 5e-09 m3/mol
x2 = 0.9249
  excess molar volume: 5.2e-08 ± 5e-09 m3/mol
x2 = 0.9349
  excess molar volume: 4.4e-08 ± 5e-09 m3/mol
x2 = 0.9544
  excess molar volume: 3.6e-08 ± 5e-09 m3/mol
x2 = 0.961
  excess molar volume: 2.7e-08 ± 5e-09 m3/mol
x2 = 0.9747
  excess molar volume: 1.8e-08 ± 5e-09 m3/mol
x2 = 0.9869
  excess molar volume: 1.2e-08 ± 5e-09 m3/mol
x2 = 0.9976
  excess molar volume: 4e-09 ± 5e-09 m3/mol
x2 = 0.0351
  speed of sound: 1600.6 ± 1.4 m/s
  viscosity: 8.955 ± 0.17 mPa·s
x2 = 0.0613
  speed of sound: 1601.1 ± 1.3 m/s
  viscosity: 9.037 ± 0.18 mPa·s
x2 = 0.0816
  speed of sound: 1601.4 ± 1.3 m/s
  viscosity: 9.118 ± 0.18 mPa·s
x2 = 0.1155
  speed of sound: 1601.9 ± 1.3 m/s
  viscosity: 9.255 ± 0.18 mPa·s
x2 = 0.1641
  speed of sound: 1602.4 ± 1.3 m/s
  viscosity: 9.302 ± 0.18 mPa·s
x2 = 0.2134
  speed of sound: 1602.9 ± 1.3 m/s
  viscosity: 9.358 ± 0.18 mPa·s
x2 = 0.3111
  speed of sound: 1604.5 ± 1.2 m/s
  viscosity: 9.487 ± 0.18 mPa·s
x2 = 0.3866
  speed of sound: 1605.8 ± 1.2 m/s
  viscosity: 9.654 ± 0.18 mPa·s
x2 = 0.5068
  speed of sound: 1607.7 ± 1.2 m/s
  viscosity: 9.833 ± 0.19 mPa·s
x2 = 0.6039
  speed of sound: 1610 ± 1.2 m/s
  viscosity: 9.963 ± 0.19 mPa·s
x2 = 0.7046
  speed of sound: 1613.5 ± 1.1 m/s
  viscosity: 10.04 ± 0.19 mPa·s
x2 = 0.8015
  speed of sound: 1617.8 ± 1.1 m/s
  viscosity: 10.29 ± 0.19 mPa·s
x2 = 0.8495
  speed of sound: 1620.3 ± 1.1 m/s
  viscosity: 10.5 ± 0.2 mPa·s
x2 = 0.8974
  speed of sound: 1624.1 ± 1.1 m/s
  viscosity: 10.75 ± 0.2 mPa·s
x2 = 0.9233
  speed of sound: 1626 ± 1.1 m/s
  viscosity: 10.83 ± 0.2 mPa·s
x2 = 0.9458
  speed of sound: 1627.7 ± 1.1 m/s
  viscosity: 11.05 ± 0.2 mPa·s
x2 = 0.9731
  speed of sound: 1631 ± 1.1 m/s
  viscosity: 11.14 ± 0.21 mPa·s

Reference: the NIST ThermoML archive (doi:10.1016/j.jct.2007.08.005)
